Reference: patent publication US10570117B2, “Phenylimidazole compound” (Otsuka Pharmaceutical Factory, Inc., priority 2015, dated 2020)
Converted amounts (≈) assume the structure as drawn. Read-outs that look alike come from different tables or passages of the source.

Legend:
[1] = tested on: lipoprotein lipase (LPL) gene; assay: LPL mRNA elevating action (RT-PCR quantification of LPL mRNA in C2Cl2 cells); type: cell-based, mouse; conditions: Mus musculus, 24 h, compound 10 μM, ratio relative to the amount of LPL mRNA in cells with DMSO only, read-out: Rate of increase in LPL mRNA
How it was run: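 Read-out is LPL mRNA relative to vehicle (DMSO = 1), measured by reverse transcription and 20-cycle real-time PCR. Cells were the mouse striated-muscle line C2Cl2, treated 24 h with 10 μM compound in DMEM containing 10% FBS.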

[2] = Solubility in gastric juice or intestinal juice model fluid (precipitation method using DMSO); type: physicochemical; conditions: room temperature
How it was run: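 Dissolved amount (μg/mL) quantified by UV of filtrate versus pre-made calibration curves. Precipitation approach: DMSO solutions spiked into pH 1.2 (JP 1st fluid) or pH 6.8 (JP 2nd fluid) medium, shaken at room temperature for 24 h before insolubles were filtered off.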

[3] = pH 1.2, simulated gastric fluid, kinetic from dmso stock, 1st fluid for Disintegration Test of Japanese Pharmacopoeia (pH: 1.2), read-out: Solubility (μg/mL) 1st fluid
[4] = pH 6.8, kinetic from dmso stock, 2nd fluid for Disintegration Test of Japanese Pharmacopoeia (pH: 6.8), read-out: Solubility (μg/mL) 2nd fluid

Row | Structure (SMILES) | solubility at 24 h [2, 3] [µg/mL] | solubility at 24 h [2, 4] [µg/mL] | melting point | fold induction at 10 µM [1]
1 | COc1cc(-c2[nH]c(C3CC3)nc2Cl)ccc1OCc1ncc(C(F)(F)F)cc1F [Example 378] | 81.6 (≈ 185 µM) | 7.5 (≈ 17 µM) | 161 to 165 °C (dec.) | 1.24
2 | COc1cc(OCc2ncc(C(F)(F)F)cc2F)ccc1-c1cnc(C(C)(C)C)[nH]1 [Example 379] | 79.9 (≈ 189 µM) | 72.9 (≈ 172 µM) | 141 to 144 °C | 2.87
3 | COc1cc(-c2cnc(C(C)(C)C)[nH]2)ccc1OCc1ncc(C(F)(F)F)cc1F [Example 380] | 81.2 (≈ 192 µM) | 63.7 (≈ 150 µM) | 178 to 182 °C | 1.18
4 | COc1cc(OCc2ncc(C(F)(F)F)cc2F)ccc1-c1cnc(C(C)C)[nH]1 [Example 381] | 78.2 (≈ 191 µM) | 66.9 (≈ 163 µM) | 84 to 89 °C | 2.19
5 | COc1cc(OCc2ncc(C(F)(F)F)cc2F)ccc1-c1[nH]c(C(C)(C)C)nc1Cl [Example 383] | 85.1 (≈ 186 µM) | < 0.3 | 170 to 172 °C | 2.16
6 | COc1cc(-c2[nH]c(C(C)(C)C)nc2Cl)ccc1OCc1ncc(C(F)(F)F)cc1F [Example 384] | 86.4 (≈ 189 µM) | 1.2 (≈ 2.62 µM) | 179 to 184 °C | 1.84
7 | COc1cc(OCc2ncc(C(F)(F)F)cc2F)ccc1-c1[nH]c(C(C)C)nc1Cl [Example 385] | 84.7 (≈ 191 µM) | 2.1 (≈ 4.73 µM) | 131 to 135 °C | 3.18
8 | COc1cc(-c2[nH]c(C(C)C)nc2Cl)ccc1OCc1ncc(C(F)(F)F)cc1F [Example 386] | 82.7 (≈ 186 µM) | 0.9 (≈ 2.03 µM) | 188 to 191 °C (dec.) | 2.77
9 | COc1cc(OCc2ncc(C(F)(F)F)cc2F)ccc1-c1cnc(CCC(F)(F)F)[nH]1 [Example 390] | 49.5 (≈ 107 µM) | 21.6 (≈ 46.6 µM) | 76 to 91 °C | 2.09
10 | Fc1cc(C(F)(F)F)cnc1COc1ccc(-c2cnc(C3CC(F)(F)C3)[nH]2)cc1 [Example 393] | > 85 | 1.9 (≈ 4.45 µM) | 191 to 196 °C | 1.26
11 | COc1cc(OCc2ncc(C(F)(F)F)cc2F)ccc1-c1[nH]c(CCC(F)(F)F)nc1Cl [Example 394] | 96.3 (≈ 193 µM) | < 0.4 | 154 to 159 °C | 2.39
12 | COc1cc(-c2[nH]c(CCC(F)(F)F)nc2Cl)ccc1OCc1ncc(C(F)(F)F)cc1F [Example 395] | 3.8 (≈ 7.63 µM) | < 0.4 | 116 to 119 °C | 2.61
13 | Fc1cc(C(F)(F)F)cnc1COc1ccc(-c2[nH]c(C3CC(F)(F)C3)nc2Cl)cc1 [Example 397] | 15.9 (≈ 34.4 µM) | < 0.3 | 162 to 167 °C | 4.58
14 | COc1cc(OCc2ncc(C(F)(F)F)cc2F)ccc1-c1[nH]c(C2CC(F)(F)C2)nc1C [Example 399] | 54.1 (≈ 115 µM) | 3.4 (≈ 7.21 µM) | 172 to 174 °C | 4.68
15 | COc1cc(OCc2ncc(C(F)(F)F)cc2F)ccc1-c1[nH]c(C2CC(F)(F)C2)nc1Br [Example 400] | 97.1 (≈ 181 µM) | 0.6 (≈ 1.12 µM) | 192 to 195 °C | 4.49

The next lines start with results.

Row | solubility at 24 h [2, 3] [µg/mL] | solubility at 24 h [2, 4] [µg/mL] | melting point | Structure (SMILES) | fold induction at 10 µM [1]
16 | 4.8 (≈ 9.17 µM) | 0.8 (≈ 1.53 µM) | 191 to 193 °C | COc1cc(OCc2ncc(C(F)(F)F)cc2F)ccc1-c1cnc(-c2ccc(Br)nc2)[nH]1 [Example 387] | 2.41
17 | 0.8 (≈ 1.58 µM) | < 0.4 | 222 to 224 °C | COc1cc(OCc2ccc(C(F)(F)F)nc2)ccc1-c1cnc(-c2ccc(Br)nc2)[nH]1 [Example 388] | 2.13
18 | 28 (≈ 54.8 µM) | < 0.4 | 113 to 118 °C | COc1cc(-c2[nH]c(-c3ccc(F)nc3)nc2Cl)ccc1OC(C)c1ncc(C(F)(F)F)cc1F (stereo not shown) [Example 396] | 2.93
19 | > 90 | 12.4 (≈ 27.7 µM) | 202 to 207 °C | Oc1cc(OCc2ncc(C(F)(F)F)cc2F)ccc1-c1cnc(-c2ccc(F)nc2)[nH]1 [Example 406, 5-[[3-fluoro-5-(trifluoromethyl)pyridin-2-yl]methoxy]-2-[2-(6-fluoropyridin-3-yl)-1H-imidazol-5-yl]phenol] | 2.62
20 | 2.7 (≈ 5.59 µM) | < 0.3 | 229 to 233 °C (dec.) | Oc1cc(OCc2ncc(C(F)(F)F)cc2F)ccc1-c1[nH]c(-c2ccc(F)nc2)nc1Cl [Example 407] | 1.68
21 | 1.9 (≈ 3.6 µM) | < 0.4 | 202 to 204 °C | Oc1cc(OCc2ncc(C(F)(F)F)cc2F)ccc1-c1[nH]c(-c2ccc(F)nc2)nc1Br [Example 408] | 1.24
22 | 1.3 (≈ 2.77 µM) | 1.9 (≈ 4.05 µM) | 212 to 219 °C | COc1cc(OCc2ccc(C(F)(F)F)nc2)ccc1-c1[nH]c(-c2ccc(F)nc2)nc1C#N [Example 409] | 1.34
23 | 1.1 (≈ 2.28 µM) | < 0.3 | 165 to 167 °C | COc1cc(OCc2ccc(C(F)(F)F)nc2)ccc1-c1nc(-c2ccc(F)nc2)n(C)c1C#N [Example 410] | 0.42
24 | 3.1 (≈ 5.84 µM) | 3 (≈ 5.66 µM) | 181 to 182 °C | COc1cc(OCc2ncc(C(F)(F)F)cc2F)ccc1-c1[nH]c(-c2ccc(F)nc2)nc1C(F)(F)F [Example 411, 3-fluoro-2-[[4-(2-(6-fluoropyridin-3-yl)-4-(trifluoromethyl)-1H-imidazol-5-yl)-3-methoxyphenoxy]methyl]-5-(trifluoromethyl)pyridine] | 1.62
25 | 0.6 (≈ 1.17 µM) | 1.5 (≈ 2.93 µM) | 222 to 224 °C | COc1cc(OCc2ccc(C(F)(F)F)nc2)ccc1-c1[nH]c(-c2ccc(F)nc2)nc1C(F)(F)F [Example 412] | 1.41
